Data published in DBAASP.
≈ marks a conversion by molar mass, not a printed value. One block for each compound: values may come before it.

Experiments:
Experiment in all cases: ≥ marks a high value that may be exact or a test limit, other limits are often not marked, values filed in µg/mL are converted to µM
[1] = tested on: Staphylococcus aureus ATCC 25923
[2] = tested on: Pseudomonas aeruginosa CUN 4158-02
[3] = tested on: Bordetella bronchiseptica CUN 11844-99
[4] = tested on: Escherichia coli ATCC 25922
[5] = tested on: Pseudomonas aeruginosa H187
Escherichia coli UB1005 = tested on: Escherichia coli UB1005
[6] = tested on: Staphylococcus aureus SH1000
[7] = tested on: Enterobacter cloacae beta-12
[8] = tested on: Bacillus subtilis ATCC 6633
[9] = tested on: Candida tropicalis IOC 4560
[10] = tested on: Pseudomonas aeruginosa ATCC 27853
[11] = tested on: Staphylococcus aureus ATCC 29213
Escherichia coli SBS 363 = tested on: Escherichia coli SBS 363
[12] = tested on: Serratia marcescens ATCC 4112
Candida albicans MDM8 = tested on: Candida albicans MDM8
Micrococcus luteus A270 = tested on: Micrococcus luteus A270
[13] = tested on: Bacillus megaterium ATCC 10778
[14] = tested on: Escherichia coli DH5alpha
[15] = tested on: Mycobacterium tuberculosis H37Rv
[16] = tested on: Pseudomonas aeruginosa H1001
[17] = tested on: Pseudomonas aeruginosa K799
[18] = tested on: Burkholderia cepacia ATCC 25416
[19] = tested on: Pseudomonas aeruginosa H547
[20] = tested on: Pseudomonas aeruginosa H744
[21] = tested on: Salmonella enterica subsp. enterica serovar Typhimurium ATCC 14028s
[22] = tested on: Pseudomonas aeruginosa Z61

SMILES: CC[C@H](C)[C@H](NC(=O)[C@H](Cc1ccccc1)NC(=O)[C@H](CO)NC(=O)[C@H](CCCCN)NC(=O)[C@H](Cc1c[nH]c2ccccc12)NC(=O)[C@@H](N)CCCCN)C(=O)N[C@@H](CCCCN)C(=O)N[C@@H](CC(N)=O)C(=O)N[C@@H](CC(C)C)C(=O)N[C@@H](CCC(=O)O)C(=O)N[C@@H](CCCCN)C(=O)N[C@H](C(=O)N[C@@H](CC(C)C)C(=O)N[C@@H](CCCCN)C(=O)N1CCC[C@H]1C(=O)NCC(=O)NCC(=O)N[C@@H](CC(C)C)C(=O)N[C@@H](CC(C)C)C(=O)N[C@@H](CO)C(=O)N[C@@H](CC(N)=O)C(=O)N[C@H](C(=O)N[C@H](C(=O)N[C@H](C(=O)N[C@@H](CO)C(=O)N[C@@H](CC(C)C)C(=O)O)[C@@H](C)O)C(C)C)[C@@H](C)CC)C(C)C [KWKSFIKNLEKVLKPGGLLSNIVTSL]
MIC [5]: 2.75 µM (≈ 8 µg/mL)
MIC (Escherichia coli UB1005): 0.343 µM (≈ 1 µg/mL)

SMILES: CC(C)C[C@H](NC(=O)CN)C(=O)N[C@@H](Cc1ccccc1)C(=O)N[C@@H](CC(=O)O)C(=O)N[C@@H](CC(C)C)C(=O)N[C@@H](CC(C)C)C(=O)N[C@@H](CCCCN)C(=O)N[C@@H](CCCCN)C(=O)N[C@@H](CC(C)C)C(=O)N[C@@H](CC(C)C)C(=O)N[C@@H](CCCCN)C(=O)N[C@@H](CC(C)C)C(=O)N[C@@H](CC(C)C)C(=O)N[C@@H](CCCCN)C(N)=O [GLFDLLKKLLKLLK]
MIC [6]: ≥ 100 µM

SMILES: CC(C)C[C@H](NC(=O)[C@H](C)NC(=O)CNC(=O)[C@H](CC(C)C)NC(=O)[C@@H](N)Cc1ccccc1)C(=O)N[C@@H](Cc1c[nH]c2ccccc12)C(=O)N[C@@H](CC(N)=O)C(=O)N[C@H](C(=O)N[C@@H](C)C(=O)N[C@@H](CCCCN)C(=O)N[C@@H](CO)C(=O)N[C@@H](Cc1ccc(O)cc1)C(=O)N[C@@H](Cc1ccccc1)C(N)=O)C(C)C [FLGALWNVAKSYF]
MIC [7]: ≥ 50 µM
MIC [8]: 1.6 µM (≈ 2.42 µg/mL)
MIC [9]: 12.5 µM (≈ 18.9 µg/mL)
MIC [10]: > 50 µM
MIC [11]: 3.1 µM (≈ 4.7 µg/mL)
MIC (Escherichia coli SBS 363): 6.3 µM (≈ 9.54 µg/mL)
MIC [12]: 0.4 µM (≈ 0.606 µg/mL)
MIC (Candida albicans MDM8): ≥ 50 µM
MIC (Micrococcus luteus A270): 0.8 µM (≈ 1.21 µg/mL)
MIC [13]: 3.1 µM (≈ 4.7 µg/mL)

SMILES: CSCC[C@H](NC(=O)[C@H](CCC(=O)O)NC(=O)[C@H](CCCN=C(N)N)NC(=O)[C@@H](N)CCCCN)C(=O)N[C@@H](CCCCN)C(=O)N[C@@H](CCCN=C(N)N)C(=O)N1CCC[C@H]1C(=O)NCC(=O)N[C@@H](CCCCN)C(=O)NCC(=O)N[C@@H](CC(N)=O)C(=O)N[C@@H](CCCN=C(N)N)C(=O)N[C@@H](CC(N)=O)C(=O)N[C@@H](CC(N)=O)C(=O)N[C@@H](Cc1c[nH]c2ccccc12)C(=O)N[C@@H](CCCCN)C(=O)N[C@@H](CCCCN)C(=O)N[C@@H](CCC(=O)O)C(=O)N[C@@H](Cc1ccc(O)cc1)C(=O)O [KREMKRPGKGNRNNWKKEY]
MIC [15]: ≥ 82.7 µM

SMILES: CC[C@H](C)[C@H](NC(=O)[C@H](CCCN=C(N)N)NC(=O)[C@H](CCCCN)NC(=O)[C@@H]1CCCN1C(=O)[C@@H]1CCCN1C(=O)[C@H](CCCN=C(N)N)NC(=O)[C@@H]1CCCN1C(=O)[C@H](CCCN=C(N)N)NC(=O)[C@@H]1CCCN1C(=O)[C@H](CC(C)C)NC(=O)[C@H](Cc1ccc(O)cc1)NC(=O)[C@@H]1CCCN1C(=O)[C@@H]1CCCN1C(=O)[C@H](CCCCN)NC(=O)[C@H](CC(=O)O)NC(=O)[C@@H](N)C(C)C)C(=O)N[C@@H](Cc1ccc(O)cc1)C(=O)N[C@@H](CC(N)=O)C(=O)N[C@@H](CCCN=C(N)N)C(=O)NCC(=O)O [VDKPPYLPRPRPPKRIYNRG]
MIC [16]: 0.112 µM (≈ 0.27 µg/mL)

SMILES: CC[C@H](C)[C@H](NC(=O)CNC(=O)[C@@H](NC(=O)[C@H](CCCCN)NC(=O)[C@H](CCCCN)NC(=O)[C@H](Cc1ccccc1)NC(=O)[C@H](CC(C)C)NC(=O)[C@@H](N)CCCCN)[C@@H](C)CC)C(=O)NCC(=O)N[C@@H](C)C(=O)N[C@H](C(=O)N[C@@H](CC(C)C)C(=O)N[C@@H](CCCCN)C(=O)N[C@H](C(=O)N[C@@H](CC(C)C)C(=O)N[C@H](C(=O)N[C@H](C(=O)NCC(=O)N[C@@H](CC(C)C)C(=O)N1CCC[C@H]1C(=O)N[C@@H](C)C(=O)N[C@@H](CC(C)C)C(=O)N[C@@H](CCCCN)C(=O)N[C@@H](CC(C)C)C(=O)N[C@H](C(=O)N[C@@H](CC(C)C)C(=O)N[C@@H](CCCCN)C(=O)O)[C@@H](C)O)[C@@H](C)O)[C@@H](C)O)C(C)C)C(C)C [KLFKKIGIGAVLKVLTTGLPALKLTLK]
MIC [17]: 11.2 µM (≈ 32 µg/mL)
MIC [18]: 22.3 µM (≈ 64 µg/mL)
MIC [19]: 11.2 µM (≈ 32 µg/mL)
MIC [20]: 1.4 µM (≈ 4 µg/mL)
MIC [21]: 10.1 µM (≈ 29 µg/mL)
MIC [22]: 6.63 µM (≈ 19 µg/mL)
MIC (Escherichia coli UB1005): 1.75 µM (≈ 5 µg/mL)

SMILES: CC[C@H](C)[C@H](NC(=O)[C@H](CCCN=C(N)N)NC(=O)[C@H](CCCN=C(N)N)NC(=O)[C@H](CCCN=C(N)N)NC(=O)[C@@H]1CCCN1C(=O)[C@H](CCCN=C(N)N)NC(=O)[C@@H]1CCCN1C(=O)[C@H](CCCN=C(N)N)NC(=O)[C@@H]1CCCN1C(=O)[C@H](CC(C)C)NC(=O)[C@H](Cc1ccc(O)cc1)NC(=O)[C@@H]1CCCN1C(=O)[C@@H]1CCCN1C(=O)[C@H](CCCCN)NC(=O)[C@H](CC(=O)O)NC(=O)[C@@H](N)C(C)C)C(=O)N[C@@H](Cc1ccc(O)cc1)C(=O)N[C@@H](CC(N)=O)C(=O)N[C@@H](CCCN=C(N)N)C(=O)NCC(=O)O [VDKPPYLPRPRPRRRIYNRG]
MIC [16]: 0.12 µM (≈ 0.3 µg/mL)

More lines, now with the values ahead:

MIC [1]: 26.1 µM (≈ 64 µg/mL)
MIC [2]: 26.1 µM (≈ 64 µg/mL)
MIC [3]: 6.54 µM (≈ 16 µg/mL)
MIC [4]: 26.1 µM (≈ 64 µg/mL)
SMILES: CC(C)C[C@H](NC(=O)CNC(=O)[C@H](CCCCN)NC(=O)[C@H](Cc1ccccc1)NC(=O)[C@H](CCCCN)NC(=O)[C@H](Cc1c[nH]c2ccccc12)NC(=O)[C@H](CCCN=C(N)N)NC(=O)[C@H](Cc1ccccc1)NC(=O)[C@H](CCCCN)NC(=O)[C@H](CCCCN)NC(=O)[C@H](Cc1ccc(O)cc1)NC(=O)[C@H](CCCN=C(N)N)NC(=O)[C@H](CCCN=C(N)N)NC(=O)CN)C(=O)N[C@@H](Cc1ccccc1)C(=O)N[C@@H](CC(C)C)C(=O)N[C@@H](Cc1ccccc1)C(=O)N[C@@H](CC(C)C)C(=O)NCC(N)=O [GRRYKKFRWKFKGLFLFLG]

MIC [6]: 3.16 µM (≈ 6.97 µg/mL)
MIC [14]: 10 µM (≈ 22 µg/mL)
SMILES: CC[C@H](C)[C@H](NC(=O)[C@H](C)NC(=O)[C@H](CCCCN)NC(=O)[C@@H](NC(=O)[C@H](CC(C)C)NC(=O)[C@H](CCCCN)NC(=O)[C@H](CCCCN)NC(=O)[C@@H](NC(=O)CNC(=O)[C@H](C)NC(=O)[C@H](Cc1ccccc1)NC(=O)[C@H](Cc1ccccc1)NC(=O)[C@H](CCCCN)NC(=O)CNC(=O)[C@@H](N)Cc1c[nH]c2ccccc12)C(C)C)[C@@H](C)O)C(=O)N[C@@H](CC(C)C)C(=O)N[C@@H](C)C(=O)N[C@H](C(=O)N[C@@H](CCCN=C(N)N)C(=O)N[C@@H](C)C(N)=O)C(C)C [WGKFFAGVKKLTKAILAVRA]

MIC [16]: ≥ 173 µM
SMILES: CC[C@H](C)[C@H](NC(=O)[C@H](C)NC(=O)[C@H](CC(N)=O)NC(=O)[C@H](CCSC)NC(=O)[C@@H]1CCCN1)C(=O)N[C@@H](CCCCN)C(=O)N[C@@H](CC(C)C)C(=O)N[C@@H](CC(C)C)C(=O)N[C@@H](CS)C(=O)N[C@@H](CCCN=C(N)N)C(=O)O [PMNAIKLLCR]

MIC [5]: 1.65 µM (≈ 4.8 µg/mL)
MIC (Escherichia coli UB1005): 0.823 µM (≈ 2.4 µg/mL)
SMILES: CC[C@H](C)[C@H](NC(=O)[C@H](CC(C)C)NC(=O)[C@H](C)NC(=O)[C@@H]1CCCN1C(=O)[C@H](CC(C)C)NC(=O)CNC(=O)[C@@H](NC(=O)[C@@H](NC(=O)[C@H](CC(C)C)NC(=O)[C@@H](NC(=O)[C@H](CCCCN)NC(=O)[C@H](CCCCN)NC(=O)[C@@H](NC(=O)[C@H](C)NC(=O)[C@@H](NC(=O)[C@@H](NC(=O)[C@H](CC(C)C)NC(=O)[C@H](CCCCN)NC(=O)[C@H](CCCCN)NC(=O)[C@@H](NC(=O)[C@H](Cc1ccccc1)NC(=O)[C@H](CCC(=O)O)NC(=O)[C@H](CCCCN)NC(=O)[C@H](Cc1c[nH]c2ccccc12)NC(=O)[C@@H](N)CCCCN)[C@@H](C)CC)[C@@H](C)O)[C@@H](C)O)C(C)C)C(C)C)[C@@H](C)O)[C@@H](C)O)C(=O)N[C@@H](CO)C(=O)O [KWKEFIKKLTTAVKKVLTTGLPALIS]
